Data: US20120252765A1, “USE OF […] THE PREPARATION OF A MEDICAMENT FOR THE PREVENTION OF HOSPI[…] HEART FAILURE” (SANOFI, priority 2009, published 2012)

Test system: patients with atrial fibrillation
Experiment: partial factorial, double-blind, randomized, multi-center, placebo-controlled trial of irbesartan for prevention of vascular events
Assay type: in vivo, human
Excerpt: Efficacy of irbesartan and its pharmaceutically acceptable salts versus placebo in patients with atrial fibrillation for the prevention of vascular events was provided via irbesartan during a partial factorial, double-blind, randomized, multi-center, placebo-controlled group trial.
To be eligible for the trial, patients had to have all of the following: an evidence of atrial fibrillation, an evidence of high risk of vascular events, and a systolic blood pressure of at least 110 mm Hg.
The evidence of atrial fibrillation is defined as follows: patient must have either permanent, paroxysmal or persistent atrial fibrillation. Patients in atrial fibrillation at baseline (unless cardiovascular surgery was performed in the previous month) had ECG documented atrial fibrillation at the time of enrollment. Patients not in atrial fibrillation at baseline (i.e. during screening period, between the screening visit and the day of randomization) had ECG documented atrial fibrillation on two separate occasions, at least 2 weeks apart in the six months prior to randomization (and not within one month of cardiovascular surgery).
The evidence of high risk of vascular events is defined as follows: at least one of the following risk criteria must be present:
Patients have been enrolled for over 4 years. Study drug treatment units (placebo or irbesartan) were such that each patient took two tablets of either placebo or 150 mg irbesartan form A, once daily, at night. After an up-titration period of 2 weeks, all patients were up-titrated to 300 mg. They took two tablets of either placebo or 150 mg irbesartan form A, once daily, at night.
Results were calculated using non-parametric Kaplan-Meier estimate.
Cox's proportional hazard model was used to estimate the hazard ratio also called relative risk.
Relative risk (RR) is the ratio between the risk of having a hospitalization for heart failure for patients treated with irbesartan and the risk of having a hospitalization for heart failure for patients treated with placebo.
The percentage of decrease of an event is calculated as follow: […]

For `CCCCC1=NC2(CCCC2)C(=O)N1Cc1ccc(-c2ccccc2-c2nnn[nH]2)cc1` [irbesartan, 2-n-butyl-4-spirocyclopentane-1-[(2′-(tetrazol-5-yl)biphenyl-4-yl)methyl]-2-imidazolin-5-one], the “risk of heart failure hospitalization” value (4518 patients on irbesartan form A up-titrated to 300 mg once daily, Kaplan-Meier estimate, placebo 3.2% per year) was 2.7 % per year, the “number of stays in hospital” value (irbesartan group, placebo 4059, p=0.004) was 3817 and the “days hospitalized for cardiovascular reasons” value (irbesartan group, placebo 39941, p=0.0001) was 36480 days. The “decrease of days hospitalized for cardiovascular reasons” value (irbesartan versus placebo) was 8.7%, the “relative risk (hazard ratio) of hospitalization for heart failure” value (irbesartan versus placebo, Cox's proportional hazard model, confidence interval 0.76-0.98, p=0.018) was 0.86 and the “reduction in the risk of heart failure hospitalization (1-RR)” value (irbesartan versus placebo, p=0.018) was 14%. For the same compound, the “hospitalization for heart failure events” value (number of events in the irbesartan group (4518 patients), placebo 551) was 482, the “reduction in the risk of the composite of stroke, non-CVS embolism and transient ischemic attacks” value (post hoc analysis, irbesartan versus placebo, p=0.02) was 13% and the “risk of the composite of stroke, non-CVS embolism and transient ischemic attacks” value (post hoc analysis, placebo 3.4% per year) was 2.9 % per year.
